In PMC5063900, “A phase 1 study of the safety, tolerability, pharmacokinetics, and pharmacodynamics of TAK-063, a selective PDE10A inhibitor” (Psychopharmacology, 2016):

Experiment: CNS Vital Signs (CNSVS) computerized cognition battery
Type: in vivo, human
Settings: 2 h postdose, fasting
Description: Cognitive flexibility, attention, executive function, memory, reasoning, motor control, psychomotor speed, reaction time, and information processing speed were assessed predose and at 2 and 6 h following TAK-063 treatment using the CNSVS computerized cognition battery. The CNSVS cognition battery is a well-validated, sensitive measure and included the following tests: verbal and visual memory (VBM and VIM) tests, finger-tapping test, symbol digit coding test, Stroop test, shifting attention test, the nonverbal reasoning test, and the 4-part continuous performance test (Gualtieri and Johnson [2006]). Standardized domain scores for cognitive flexibility, composite memory, executive functioning, processing speed, psychomotor speed, reaction time, reasoning, sustained attention, verbal memory, visual memory, and working memory were reported. In all domains, a decrease in the standardized domain score is indicative of impairment.
All statistical analyses were generated using SAS Version 9.2 (SAS, Cary, NC, USA). The PK parameters were derived using non-compartmental methods with WinNonlin Enterprise Version 6.3 (Pharsight Corp., Mountain View, CA, USA). Frequency or descriptive statistics were used for summary of data. Where indicated, percent coefficient of variation was included in the summary of continuous data. All statistical tests were 2-tailed at α = 0.05 level for significance unless otherwise stated. A power model was used to evaluate dose proportionality by race for fasted subjects; in the event of no observed race effect, dose proportionality was assessed for all subjects. To evaluate the food effect, a paired t test was performed on T max and natural log-transformed C max, and AUCs. An ANCOVA model with baseline scores and race as covariates was used to assess the effects of TAK-063 on CNSVS domain scores.

## COc1cn(-c2ccc(-n3cccn3)cc2F)nc(-c2ccnn2-c2ccccc2)c1=O [TAK-063]
3 mg
  Cognitive flexibility domain score, Difference (TAK-063 LS mean - placebo LS mean, change from baseline): 1.3
  Composite memory domain score, Difference (TAK-063 LS mean - placebo LS mean, change from baseline): -7.9
  Executive functioning domain score, Difference (TAK-063 LS mean - placebo LS mean, change from baseline): 0.4
  Processing speed domain score, Difference (TAK-063 LS mean - placebo LS mean, change from baseline): 2.2
  Psychomotor speed domain score, Difference (TAK-063 LS mean - placebo LS mean, change from baseline): -1.5
  Reaction time domain score, Difference (TAK-063 LS mean - placebo LS mean, change from baseline): 4.1
  Reasoning domain score, Difference (TAK-063 LS mean - placebo LS mean, change from baseline): 5.7
  Sustained attention domain score, Difference (TAK-063 LS mean - placebo LS mean, change from baseline): 4.6
  Verbal memory domain score, Difference (TAK-063 LS mean - placebo LS mean, change from baseline): 0.9
  Visual memory domain score, Difference (TAK-063 LS mean - placebo LS mean, change from baseline): -10.3
  Working memory domain score, Difference (TAK-063 LS mean - placebo LS mean, change from baseline): 5.3
10 mg
  Cognitive flexibility domain score, Difference (TAK-063 LS mean - placebo LS mean, change from baseline): -3.1
  Composite memory domain score, Difference (TAK-063 LS mean - placebo LS mean, change from baseline): -5.2
  Executive functioning domain score, Difference (TAK-063 LS mean - placebo LS mean, change from baseline): -2.7
  Processing speed domain score, Difference (TAK-063 LS mean - placebo LS mean, change from baseline): 0.7
  Psychomotor speed domain score, Difference (TAK-063 LS mean - placebo LS mean, change from baseline): -8.5
  Reaction time domain score, Difference (TAK-063 LS mean - placebo LS mean, change from baseline): -2.3
  Reasoning domain score, Difference (TAK-063 LS mean - placebo LS mean, change from baseline): 10.8
  Sustained attention domain score, Difference (TAK-063 LS mean - placebo LS mean, change from baseline): 0.7
  Verbal memory domain score, Difference (TAK-063 LS mean - placebo LS mean, change from baseline): -4.0
  Visual memory domain score, Difference (TAK-063 LS mean - placebo LS mean, change from baseline): -3.3
  Working memory domain score, Difference (TAK-063 LS mean - placebo LS mean, change from baseline): 1.1
30 mg
  Cognitive flexibility domain score, Difference (TAK-063 LS mean - placebo LS mean, change from baseline): 0.2
  Composite memory domain score, Difference (TAK-063 LS mean - placebo LS mean, change from baseline): 2.8
  Executive functioning domain score, Difference (TAK-063 LS mean - placebo LS mean, change from baseline): 0.5
  Processing speed domain score, Difference (TAK-063 LS mean - placebo LS mean, change from baseline): 4.3
  Psychomotor speed domain score, Difference (TAK-063 LS mean - placebo LS mean, change from baseline): -1.7
  Reaction time domain score, Difference (TAK-063 LS mean - placebo LS mean, change from baseline): 3.1
  Reasoning domain score, Difference (TAK-063 LS mean - placebo LS mean, change from baseline): 6.4
  Sustained attention domain score, Difference (TAK-063 LS mean - placebo LS mean, change from baseline): 10.3
  Verbal memory domain score, Difference (TAK-063 LS mean - placebo LS mean, change from baseline): 12.4
  Visual memory domain score, Difference (TAK-063 LS mean - placebo LS mean, change from baseline): -5.2
  Working memory domain score, Difference (TAK-063 LS mean - placebo LS mean, change from baseline): 6.5
100 mg
  Cognitive flexibility domain score, Difference (TAK-063 LS mean - placebo LS mean, change from baseline): -20.2
  Composite memory domain score, Difference (TAK-063 LS mean - placebo LS mean, change from baseline): -24.1
  Executive functioning domain score, Difference (TAK-063 LS mean - placebo LS mean, change from baseline): -17.8
  Processing speed domain score, Difference (TAK-063 LS mean - placebo LS mean, change from baseline): -6.1
  Psychomotor speed domain score, Difference (TAK-063 LS mean - placebo LS mean, change from baseline): -15.2
  Reaction time domain score, Difference (TAK-063 LS mean - placebo LS mean, change from baseline): -15.6
  Reasoning domain score, Difference (TAK-063 LS mean - placebo LS mean, change from baseline): 4.6
  Sustained attention domain score, Difference (TAK-063 LS mean - placebo LS mean, change from baseline): -7.0
  Verbal memory domain score, Difference (TAK-063 LS mean - placebo LS mean, change from baseline): -24.0
  Visual memory domain score, Difference (TAK-063 LS mean - placebo LS mean, change from baseline): -15.4
  Working memory domain score, Difference (TAK-063 LS mean - placebo LS mean, change from baseline): -3.8
300 mg
  Cognitive flexibility domain score, Difference (TAK-063 LS mean - placebo LS mean, change from baseline): -30.9
  Composite memory domain score, Difference (TAK-063 LS mean - placebo LS mean, change from baseline): -26.9
  Executive functioning domain score, Difference (TAK-063 LS mean - placebo LS mean, change from baseline): -29.0
  Processing speed domain score, Difference (TAK-063 LS mean - placebo LS mean, change from baseline): -17.6
  Psychomotor speed domain score, Difference (TAK-063 LS mean - placebo LS mean, change from baseline): -18.0
  Reaction time domain score, Difference (TAK-063 LS mean - placebo LS mean, change from baseline): -10.3
  Reasoning domain score, Difference (TAK-063 LS mean - placebo LS mean, change from baseline): 0.5
  Sustained attention domain score, Difference (TAK-063 LS mean - placebo LS mean, change from baseline): -9.0
  Verbal memory domain score, Difference (TAK-063 LS mean - placebo LS mean, change from baseline): -26.7
  Visual memory domain score, Difference (TAK-063 LS mean - placebo LS mean, change from baseline): -17.2
  Working memory domain score, Difference (TAK-063 LS mean - placebo LS mean, change from baseline): -3.1
1000 mg
  Cognitive flexibility domain score, Difference (TAK-063 LS mean - placebo LS mean, change from baseline): -19.6
  Composite memory domain score, Difference (TAK-063 LS mean - placebo LS mean, change from baseline): -16.6
  Executive functioning domain score, Difference (TAK-063 LS mean - placebo LS mean, change from baseline): -16.6
  Processing speed domain score, Difference (TAK-063 LS mean - placebo LS mean, change from baseline): -17.9
  Psychomotor speed domain score, Difference (TAK-063 LS mean - placebo LS mean, change from baseline): -18.7
  Reaction time domain score, Difference (TAK-063 LS mean - placebo LS mean, change from baseline): -7.1
  Reasoning domain score, Difference (TAK-063 LS mean - placebo LS mean, change from baseline): -0.5
  Sustained attention domain score, Difference (TAK-063 LS mean - placebo LS mean, change from baseline): -5.0
  Verbal memory domain score, Difference (TAK-063 LS mean - placebo LS mean, change from baseline): -10.0
  Visual memory domain score, Difference (TAK-063 LS mean - placebo LS mean, change from baseline): -14.5
  Working memory domain score, Difference (TAK-063 LS mean - placebo LS mean, change from baseline): -2.5
